Measured values from patent US6166036A, “Lp(a)-lowering agent and apolipoprotein (a) formation suppressing agent” (Taiho Pharmaceutical Co., Ltd., priority 1998, dated 2000).

Experiments:
[1] = test system: Lp(a); test: A test on lowering of the Lp(a) level in crab-eating monkeys; assay type: in vivo, crab-eating monkey; conditions: oral 30 mg/kg, three weeks; for Changing ratio (%) of Lp(a): male, 5 per group, Lp(a) level in blood, average value; for effect on Lp(a) level (in words): conclusion from Table 6
Procedure: Crab-eating monkeys (male, 2.4 to 3.9 kg in weight) were reared in groups, each group consisting of 5 monkeys. Compound 4 was suspended in a 0.5%, HPMC (hydroxypropylmethyl cellulose) solution in an amount of 30 mg/5 mL, whereby the test compound was prepared. To the specimen-administered group, the test compound was orally administered at a dose of 30 mg/kg. At the starting time of administration and three weeks after administration, the Lp(a) level in the blood of the tested animals was measured. For the measurement, a kit ("Immunosearch Lp(a) TIA") commercially available from Cosmo Bio Co., Ltd. was employed. Namely, according to the procedure as indicated in the kit, the measurement was carried out by adding 256 μl of a phosphate buffer to 7 μl of the serum and then adding the goat anti-human Lp(a) serum to the resulting mixture. For the measurement, a biochemical automatic analyzer ("Hitachi 7170"; product of Hitachi Ltd.) was employed. As a comparative compound, pravastatin and bezafibrate were treated similarly and provided for the test. From the measuring results, a changing ratio (%) of the Lp(a) level at the starting time of administration relative to that three weeks after the administration was determined with regards to each of the monkeys and the average value was expressed as an Lp(a) lowering ratio.

[2] = test system: apo(a) gene; test: Test on suppression of apo(a) gene expression (luciferase assay in HepG2 cells); assay type: cell-based, human; conditions: final concentration of 2 μM, 48 hours; for inhibition at 2 µM: Homo sapiens, relative to DMSO control group, read-out: Expression ratio (%) of apo(a) gene; for effect on expression of apo(a) gene (in words): conclusion from Table 5
Procedure: This test was carried out in accordance with the method described in "BIOCHEMICAL AND BIOPHYSICAL RESEARCH COMMUNICATIONS 227, 570-575[…] ARTICLE No. 1547". Described specifically, 2 μg/mL of an apo(a) gene (1441 base pairs) separated from the blood of normal volunteers was introduced into HepG2 cells (2×10^5 cells/mL), followed by culturing for 16 hours. Compound 4 was dissolved in DMSO (dimethylsulfoxide) to give a final concentration of 2 μM, to which the cultured cells were added. After culturing for further 48 hours, the expression of an apo(a) gene was measured regarding it as luciferases reaction and therefore, using luciferases assay system (Picagene) of Toyo Ink Mfg. Co., Ltd. for the analysis of gene expression. Namely, the cultured HepG2 cells were dissolved in a liquid to dissolve them therein. The resulting solution was centrifuged to obtain a supernatant. To 200 μl of the resulting supernatant was added 100 μl of a […] substrate, followed by mixing for 15 seconds. The luminescence was measured by a chemo-bioluminescence measuring device (Luminoscan RS) of Dainippon Pharmaceutical Co., Ltd. and expression ratio of an apo(a) gene was determined. The expression ratio of an apo(a) gene was calculated from the ratio to the luminescence of a group (control group) to which the same amount of DMSO had been added. As comparative compounds, pravastatin (HMG-COA reductase inhibitor, sterol synthesis inhibitor) and bezafibrate (fibrate series medicament, antihyperlipoproteinemic) were treated in a similar manner and provided for the test.

[3] = test system: beagles; test: Acute toxicity test in beagles; assay type: in vivo, beagle dog; conditions: 7-month old male beagles, 2 per group, fasted 16 hours; oral 2000 mg/kg in 0.5% HPMC
Procedure: After 7-month old beagles (male, each group consisting of 2 beagles) were fasted for 16 hours, Compound 4 suspended in a 0.5%, HPMC solution was orally administered at a dose of 2000 mg/kg.

Compound | Changing ratio (%) of Lp(a) [1] | effect on Lp(a) level (in words) [1] | inhibition at 2 µM [2] | effect on expression of apo(a) gene (in words) [2] | death cases [3] | serious side effects [3]
CC(C)(Oc1ccc(CCNC(=O)c2ccc(Cl)cc2)cc1)C(=O)O [Bezafibrate, bezafibrate] | +8% | increased the Lp(a) level | -3% | reinforced the expression of the apo(a) gene | – | –
CC(C)(C)c1ccc(N2C[C@@H](COc3ccc(C(=O)O)cc3)CC2=O)cc1 [Compound 4, (S)-(+)-4-[1-(4-tert-butylphenyl)-2-pyrrolidon-4-yl]methoxybenzoic acid] | -33% | exhibited excellent Lp(a) lowering effects | 24% | exhibited excellent effects for suppressing the expression of an apo(a) gene | neither death case | nor serious side effects were recognized
CC[C@H](C)C(=O)O[C@H]1C[C@H](O)C=C2C=C[C@H](C)[C@H](CC[C@@H](O)C[C@@H](O)CC(=O)O)[C@H]21 [Pravastatin, pravastatin] | +35% | increased the Lp(a) level | -27% | reinforced the expression of the apo(a) gene | – | –
